Legend:
[1] = molecular target: T1, human recombinant GABAA α5β3γ2 receptor (Homo sapiens (Human), UniProt P18507+P31644); experiment: Binding assay, [3H]Ro151788 displacement on membranes of HEK cells; settings: 0.5 nM [3H]Ro151788, 60 minutes at 4° C., Cheng-Prusoff; read-out: hGABAA α5 Ki
Protocol: The GABAA α5β3γ2 protein used for the receptor binding assay was derived from membranes produced from HEK cells (Millipore CYL3073) expressing the human recombinant GABAA α5β3γ2 receptor. Cells were stored and cultured in-house according to the instructions provided by the vendor (Millipor). Cell pellet was homogenized in 10 times modified Krebs Henseleit buffer (membrane preparation buffer): 20 mM Tris, 120 mM NaCl, 100 mM KCl, 25 mM CaCl2) and 25 mM MgCl2 pH=7.4 at 4° C. using Ultra Turrax (Janke&Kunkel) maximal speed for 15 seconds. The homogenate was centrifuged at 40,000 g for 30 minutes at 4° C. Supernatant was discarded and the resulting pellet was washed in membrane preparation buffer. Pellet was resuspended in membrane preparation buffer and aliquots of 1.4 mL ampulles were stored at −70° C. until use.
Receptor binding assays were performed in 96-well format in deep-well plates. For each 96-well plate one ampulle of membrane homogenate was thawed and diluted in binding buffer (50 mM Tris pH=7.4, 100 mM KCl) and 200 μL was dispensed into each well. Radioligand [^3H]Ro151788 (Perkin Elmer: NET757250UC) was prepared in binding buffer and added to each well in 50 μL volume to give final concentration of 0.5 nM. Test compounds in suitable concentration(s) were added in additional 50 μL. The final assay volume was 300 μL. Incubation was carried out for 60 minutes at 4° C. For non-specific binding 10 μM unlabeled diazepam was used. After incubation samples were filtered over UniFilter® GF/B™ using Filtermate Harvester (Perkin Elmer) and washed with 5×1 mL binding buffer. The plate was dried at 40° C. for an hour and 40 μL Microscint (Perkin Elmer) scintillation cocktail was added to each well. The plate was read in Microbeta (Perkin Elmer).
The specific radioligand binding (SB) was defined as the difference between total binding (Tot) and the non-specific binding (NSB). Results are expressed as a percent inhibition of specific binding obtained in the presence of compound of interest.
For IC50 and Ki determination a minimum of six drug concentrations in triplicate were used. […] Ki values (i.e. inhibition constants) were calculated using the Cheng-Prusoff equation Ki=IC50/[1+(L/KD)], where [L] is the radioligand concentration and KD the affinity of the labelled ligand for receptor. KD was determined from the Saturation analyses.

[2] = molecular target: human recombinant GABAA α1β3γ2 receptor (Homo sapiens (Human), UniProt P14867+P18507); experiment: Functional assay, QPatch automated patch clamp, GABA-evoked currents; type: cell-based; settings: test compound 10 μM, 1 μM GABA, HEK293 cells, percentage modulation of peak current
Protocol: (§1) Human HEK293 cell lines expressing GABAA α1β3γ2 and GABAAα5β3γ2 receptors were used in functional assays using the QPatch automated patch clamp system.
(§2) HEK293 cell lines stably expressing human recombinant GABAA α1β3γ2 receptor subunits (Millipore, CYL3073) or human recombinant GABAA α5β3γ2 receptor subunits (Millipore, CYL3053) were cultured in DMEM supplemented with 10% FBS (Gibco), passed two times per week and plated on Petri dishes previously coated with poly-d-lysine.
(§3) Automated whole-cell patch clamp recordings were made from cells 2-4 days after plating. Cells were detached using trypsin/EDTA (Sigma) treatment (2 minutes in 0.25% trypsin at 37° C.), then, after centrifugation (125 G, 3 min, 2×), resuspended in a serum-free based media (Gibco, CHO—S-SFM-II) containing 12.5 mM HEPES, 1× penicillin-streptomycin-amphotericin (SigmaMix) and soybean trypsin inhibitor (Sigma, 0.04 mg/ml).
(§4) Cell suspension, as well as the extracellular solution (130 mM NaCl, 5 mM KCl, 5.1 mM HEPES, 4.9 mM HEPES-Na, 10 mM CaCl2), 2 mM MgCl2, 10 mM glucose and 0.1% DMSO, pH=7.35-7.4) and the intracellular solution (80 mM KCl, 50 mM KF, 36 mM KOH, 10 mM EGTA, 10 mM HEPES, 1.75 mM MgCl2, 0.5 mM CaCl2), 4 mM Na2ATP. 14 mM phosphocreatine, 50 U/ml creatine-phosphokinase, 0.3 mM GTP, pH=7.25-7.3) were added to the QPatch-HTX automated patch clamp system (Sophion) in single-cell mode at room temperature. […] At the end of the experiment 100 μM GABA was applied to saturate the GABA-response and to assess the efficacy of the control GABA application.
(§5) The percentage modulation was calculated from the comparison of GABA-evoked peak current amplitudes in the presence and absence of the test compound.

[3] = molecular target: T1, human recombinant GABAA α5β3γ2 receptor; experiment: as above; type: cell-based; settings: test compound 10 μM, 1 μM GABA, HEK293 cells, percentage modulation of peak current
Protocol: as §1, §2, §3, §4, §5

Sequence of human recombinant GABAA α1β3γ2 receptor (P14867 28-456): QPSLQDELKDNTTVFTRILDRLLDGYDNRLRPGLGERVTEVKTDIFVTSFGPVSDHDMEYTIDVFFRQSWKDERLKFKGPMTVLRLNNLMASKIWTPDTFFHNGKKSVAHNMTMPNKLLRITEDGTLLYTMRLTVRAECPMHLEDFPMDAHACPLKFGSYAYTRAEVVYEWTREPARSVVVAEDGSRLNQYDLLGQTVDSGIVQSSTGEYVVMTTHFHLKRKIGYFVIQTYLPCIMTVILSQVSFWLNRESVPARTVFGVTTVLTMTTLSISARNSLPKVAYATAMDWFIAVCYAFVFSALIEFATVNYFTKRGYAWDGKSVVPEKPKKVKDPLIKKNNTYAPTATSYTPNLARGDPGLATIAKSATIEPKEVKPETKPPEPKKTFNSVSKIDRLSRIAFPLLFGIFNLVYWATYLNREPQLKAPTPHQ
Sequence of human recombinant GABAA α1β3γ2 receptor (P28472 26-473 partner): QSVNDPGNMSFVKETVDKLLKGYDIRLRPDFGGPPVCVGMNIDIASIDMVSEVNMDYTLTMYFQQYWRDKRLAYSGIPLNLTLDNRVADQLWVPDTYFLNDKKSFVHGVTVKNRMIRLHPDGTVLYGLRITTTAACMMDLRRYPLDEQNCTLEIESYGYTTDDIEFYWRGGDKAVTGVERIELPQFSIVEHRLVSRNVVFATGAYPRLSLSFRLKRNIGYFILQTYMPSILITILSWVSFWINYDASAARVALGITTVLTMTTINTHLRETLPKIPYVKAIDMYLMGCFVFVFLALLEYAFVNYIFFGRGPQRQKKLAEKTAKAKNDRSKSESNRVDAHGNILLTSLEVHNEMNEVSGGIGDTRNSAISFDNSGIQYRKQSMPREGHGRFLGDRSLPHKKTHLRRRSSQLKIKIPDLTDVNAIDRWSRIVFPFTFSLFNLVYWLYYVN
Sequence of human recombinant GABAA α1β3γ2 receptor (P18507 40-475): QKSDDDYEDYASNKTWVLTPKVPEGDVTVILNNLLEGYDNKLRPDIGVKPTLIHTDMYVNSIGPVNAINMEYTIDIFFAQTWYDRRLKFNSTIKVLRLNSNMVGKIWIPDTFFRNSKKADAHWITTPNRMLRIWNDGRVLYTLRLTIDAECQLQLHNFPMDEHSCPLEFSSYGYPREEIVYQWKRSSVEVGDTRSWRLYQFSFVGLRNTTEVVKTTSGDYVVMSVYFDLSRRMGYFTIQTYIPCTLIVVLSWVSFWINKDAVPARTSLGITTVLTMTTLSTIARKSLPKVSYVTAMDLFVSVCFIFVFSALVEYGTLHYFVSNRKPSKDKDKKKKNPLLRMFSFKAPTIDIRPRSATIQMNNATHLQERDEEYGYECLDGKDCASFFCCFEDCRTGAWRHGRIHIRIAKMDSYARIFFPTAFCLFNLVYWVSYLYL
T1 sequence (P31644 32-462): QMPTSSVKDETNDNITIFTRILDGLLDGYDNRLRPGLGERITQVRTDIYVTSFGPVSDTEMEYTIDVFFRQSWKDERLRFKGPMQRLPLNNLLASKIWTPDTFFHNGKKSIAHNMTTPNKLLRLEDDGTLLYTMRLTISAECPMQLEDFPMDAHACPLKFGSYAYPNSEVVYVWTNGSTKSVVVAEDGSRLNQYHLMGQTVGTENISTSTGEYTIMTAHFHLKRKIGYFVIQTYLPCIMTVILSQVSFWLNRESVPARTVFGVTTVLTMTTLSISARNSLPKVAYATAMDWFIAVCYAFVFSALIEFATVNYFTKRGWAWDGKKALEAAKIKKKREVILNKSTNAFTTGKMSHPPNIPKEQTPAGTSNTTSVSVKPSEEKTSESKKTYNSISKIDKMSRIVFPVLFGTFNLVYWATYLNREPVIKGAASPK
T1 sequence (P28472 26-473 partner): as the sequence (P28472 26-473 partner) above
T1 sequence (P18507 40-475): as the sequence (P18507 40-475) above

Row | Compound | Ki [1] | hGABAA α1 efficacy [2] | hGABAA α5 efficacy [3]
1 | Cc1nnn(-c2ccc(F)cc2)c1COc1ccc2c(n1)CCN(C(=O)C1CCOC1)C2 (stereo not drawn) [Example 16, 2-{[1-(4-fluorophenyl)-4-methyl-1H-1,2,3-triazol-5-yl]methoxy}-6-(oxolane-3-carbonyl)-5,6,7,8-tetrahydro-1,6-naphthyridine] | 42 nM | −7% | −39%
2 | Cc1nnn(-c2ccc(F)cc2)c1COc1ccc2c(n1)CN(C(=O)C1CC1)C2 [Example 47, cyclopropyl(2-{[1-(4-fluorophenyl)-4-methyl-1H-1,2,3-triazol-5-yl]methoxy}-5,7-dihydro-6H-pyrrolo[3,4-b]pyridin-6-yl)methanone] | 7.2 nM | −10% | −34%
3 | Cc1nnn(-c2ccc(F)cc2)c1COc1ccc2c(n1)CCN(C(=O)[C@H]1CCOC1)C2 [Example 18, 2-{[1-(4-fluorophenyl)-4-methyl-1H-1,2,3-triazol-5-yl]methoxy}-6-[(3S)-oxolane-3-carbonyl]-5,6,7,8-tetrahydro-1,6-naphthyridine] | 50 nM | −5% | −45%
4 | Cc1onc(-c2ccc(F)cc2)c1COc1ccc2c(n1)CCN(C(=O)C1CCOCC1)C2 [Example 9, 2-{[3-(4-fluorophenyl)-5-methyl-1,2-oxazol-4-yl]methoxy}-6-(oxane-4-carbonyl)-5,6,7,8-tetrahydro-1,6-naphthyridine] | 6.2 nM | −9% | −37%
5 | Cc1onc(-c2ccc(F)cc2)c1COc1ccc2c(n1)CCN(C(=O)C1CCOC1)C2 (stereo not drawn) [Example 2, 2-{[3-(4-fluorophenyl)-5-methyl-1,2-oxazol-4-yl]methoxy}-6-(oxolane-3-carbonyl)-5,6,7,8-tetrahydro-1,6-naphthyridine] | 7 nM | −14% | −40%
6 | Cc1onc(-c2ccc(F)cc2)c1COc1ccc2c(n1)CCN(C(=O)CS(C)(=O)=O)C2 [Example 8, 1-(2-{[3-(4-fluorophenyl)-5-methyl-1,2-oxazol-4-yl]methoxy}-5,6,7,8-tetrahydro-1,6-naphthyridin-6-yl)-2-methanesulfonylethan-1-one] | 3.7 nM | −2% | −39%
7 | Cc1nnn(-c2ccc(F)cc2)c1COc1ccc2c(n1)CCN(C(=O)NC1CCOC1)C2 (stereo not drawn) [Example 78, 2-{[1-(4-fluorophenyl)-4-methyl-1H-1,2,3-triazol-5-yl]methoxy}-N-(oxolan-3-yl)-5,6,7,8-tetrahydro-1,6-naphthyridine-6-carboxamide] | 28 nM | −3% | −34%
8 | Cc1nnn(-c2ccc(F)cc2)c1COc1ccc2c(n1)CCN(C(=O)C1CCCO1)C2 (stereo not drawn) [Example 15, 2-{[1-(4-fluorophenyl)-4-methyl-1H-1,2,3-triazol-5-yl]methoxy}-6-(oxolane-2-carbonyl)-5,6,7,8-tetrahydro-1,6-naphthyridine] | 42 nM | −8% | −43%
9 | CC(=O)N1Cc2ccc(OCc3c(C)nnn3-c3ccc(F)cc3)nc2C1 [Example 45, 1-(2-{[1-(4-fluorophenyl)-4-methyl-1H-1,2,3-triazol-5-yl]methoxy}-5H,6H,7H-pyrrolo[3,4-b]pyridin-6-yl)ethan-1-one] | 3.2 nM | −7% | −30%
10 | Cc1nnn(-c2ccc(Cl)cc2)c1COc1ccc2c(n1)CCN(C(=O)C1CCOC1)C2 (stereo not drawn) [Example 29, 2-{[1-(4-chlorophenyl)-4-methyl-1H-1,2,3-triazol-5-yl]methoxy}-6-(oxolane-3-carbonyl)-5,6,7,8-tetrahydro-1,6-naphthyridine] | – | −2% | −25%
11 | Cc1nnn(-c2ccc(F)cc2)c1COc1ccc2c(n1)CCN(C(=O)C1CC(=O)N(C(C)C)C1)C2 (stereo not drawn) [Example 44, 4-(2-{[1-(4-fluorophenyl)-4-methyl-1H-1,2,3-triazol-5-yl]methoxy}-5,6,7,8-tetrahydro-1,6-naphthyridine-6-carbonyl)-1-(propan-2-yl)pyrrolidin-2-one] | 54 nM | – | –
12 | Cc1nnn(-c2ccc(F)cc2)c1COc1ccc2c(n1)CCN(C(=O)[C@@H]1CCC(=O)N1C)C2 [Example 40, (5S)-5-(2-{[1-(4-fluorophenyl)-4-methyl-1H-1,2,3-triazol-5-yl]methoxy}-5,6,7,8-tetrahydro-1,6-naphthyridine-6-carbonyl)-1-methylpyrrolidin-2-one] | 56 nM | – | –
13 | Cc1nnn(-c2ccc(F)cc2)c1COc1ccc2c(n1)CCN(C(=O)Nc1ccc(Cl)cc1)C2 [Example 81, N-(4-chlorophenyl)-2-{[1-(4-fluorophenyl)-4-methyl-1H-1,2,3-triazol-5-yl]methoxy}-5,6,7,8-tetrahydro-1,6-naphthyridine-6-carboxamide] | 37 nM | – | –
14 | Cc1cc(C(=O)N2CCc3nc(OCc4c(-c5ccc(F)cc5)noc4C)ccc3C2)no1 [Example 10, 2-{[3-(4-fluorophenyl)-5-methyl-1,2-oxazol-4-yl]methoxy}-6-(5-methyl-1,2-oxazole-3-carbonyl)-5,6,7,8-tetrahydro-1,6-naphthyridine] | 21 nM | – | –
15 | Cc1nnn(-c2ccc(F)cc2)c1COc1ccc2c(n1)CCN(C(=O)c1ccccn1)C2 [Example 26, 2-{[1-(4-fluorophenyl)-4-methyl-1H-1,2,3-triazol-5-yl]methoxy}-6-(pyridine-2-carbonyl)-5,6,7,8-tetrahydro-1,6-naphthyridine] | 80 nM | – | –
16 | Cc1nnn(-c2ccc(F)cc2)c1COc1ccc2c(n1)CCN(C(=O)c1ccc(C(F)(F)F)nc1)C2 [Example 37, 2-{[1-(4-fluorophenyl)-4-methyl-1H-1,2,3-triazol-5-yl]methoxy}-6-[6-(trifluoromethyl)pyridine-3-carbonyl]-5,6,7,8-tetrahydro-1,6-naphthyridine] | 69 nM | – | –
17 | Cc1nnn(-c2ccc(F)cc2)c1COc1ccc2c(n1)CN(C(=O)c1ccncc1)C2 [Example 64, 4-(2-{[1-(4-fluorophenyl)-4-methyl-1H-1,2,3-triazol-5-yl]methoxy}-5H,6H,7H-pyrrolo[3,4-b]pyridine-6-carbonyl)pyridine] | 25 nM | – | –
18 | CC(=O)N1CCc2ccc(OCc3c(C)nnn3-c3ccc(F)cc3)nc2C1 [Example 34, 1-(2-{[1-(4-fluorophenyl)-4-methyl-1H-1,2,3-triazol-5-yl]methoxy}-5,6,7,8-tetrahydro-1,7-naphthyridin-7-yl)ethan-1-one] | 112 nM | – | –
19 | Cc1onc(-c2ccc(F)cc2)c1COc1ccc2c(n1)CCN(C(=O)N1CCOCC1)C2 [Example 82, 2-{[3-(4-fluorophenyl)-5-methyl-1,2-oxazol-4-yl]methoxy}-6-(morpholine-4-carbonyl)-5,6,7,8-tetrahydro-1,6-naphthyridine] | 5.2 nM | – | –
20 | Cc1onc(-c2ccc(F)cc2)c1COc1ccc2c(n1)CN(C(=O)CS(C)(=O)=O)C2 [Example 49, 1-(2-{[3-(4-fluorophenyl)-5-methyl-1,2-oxazol-4-yl]methoxy}-5H,6H,7H-pyrrolo[3,4-b]pyridin-6-yl)-2-methanesulfonylethan-1-one] | 1.2 nM | – | –
